Test results from patent EP0064820A1, “Substituted imidazole and imidazoline derivatives and their preparation and use” (Farmos-Yhtyma Oy, priority 1981, dated 1982).

Experiments:
[1] = system: Sprague-Dawley rats; experiment: anti-hypertensive test in urethane-anesthetized rats, blood pressure and pulse frequency recorded after injection; type: in vivo
Protocol: The anti-hypertensive properties of the imidazole derivatives of the present invention have been determined according to the following procedure. Sprague-Dawley rats of normal weight were first anesthetized with urethane. After this, the femoral artery was connected by way of a polyethylene tube with a blood pressure transducer. The test substance was then injected into the femoral vein and the blood pressure and the pulse frequency were registered with a recorder.

[2] = acute toxicity in mice, i.v.; details: mouse, in vivo, iv
Protocol: Acute toxicity was determined by using female mice of NMRI-Strain with an age of about 7 months and weighing 30-40 g. The administration of the test compound was i.v.

[3] = system: Sprague-Dawley rats; experiment: anti-hypertensive test in urethane-anesthetized rats, blood pressure and pulse frequency recorded after injection; type: in vivo; details: i.c.v. dosage compared with i.v.
[4] = system: thrombocytes from a cow; experiment: antithrombotic activity in vitro: inhibition of ADP- and collagen-induced aggregation of thrombocytes, turbidimetric; type: cell-based; details: cow plasma; for inhibition of ADP-induced aggregation of thrombocytes: ADP added after 10 min incubation; for inhibition of collagen-induced aggregation of thrombocytes: collagen added after 10 min incubation
Protocol: The antithrombotic activity was investigated in vitro. The inhibiting activity of the compounds against ADP- and collagen-induced aggregation of thrombocytes was measured. In the test thrombocytes from a cow were used. To 1.2 ml of plasma containing 250000 thrombocytes/mm^3 were added 50 µl of a solution of the compound to be tested. After 10 min incubation either ADP or collagen was added. The aggregation of the thrombocytes was turbidimetrically determined at X = 605 nm.

[5] = dose of the maximum not stated, within the active dose range

| Compound | LD50 [2] [mg/kg] | inhibition of ADP-induced aggregation of thrombocytes [4] | inhibition of collagen-induced aggregation of thrombocytes [4] | also measured |
| --- | --- | --- | --- | --- |
| Cc1ccc(CC(O)c2ncc[nH]2)cc1C (centres unmarked) [2-[2-(3,4-dimethylphenyl)-1-hydroxyethyl]-imidazole] | 50 |  |  | maximal decrease of the blood pressure [1, 5]: 17% |
| Cc1ccc(C)c(CCc2ncc[nH]2)c1 [2-[2-(2,5-dimethylphenyl)-ethyl]-imidazole] | 30 |  |  | maximal decrease of the blood pressure ([1]; obtained with a dose of 10 mg/kg i.v.): 37% |
| Cc1cccc(C)c1CCc1ncc[nH]1 [2-[2-(2,6-dimethylphenyl)-ethyl]-imidazole] | 20 | effectively | effectively | pulse frequency ([1]; at high dosages): slight decrease; effect on blood pressure ([1]; dose 300 µg/kg i.v.): lowered blood pressure of long duration; decrease of the blood pressure ([1]; dose 3 mg/kg i.v., rats): 30%; effect on blood pressure ([1]; dose 30 and 100 µg/kg i.v. in rats): lowered the blood pressure for a shorter time; effect on blood pressure ([1]; doses of 30 mg/kg i.v.): did not elevate the blood pressure; blood pressure lowered by i.c.v. dosage with smaller amounts (than i.v.) [3]: 10 x |
| Cc1ccc(C)c(CC(O)c2ncc[nH]2)c1 (centres unmarked) [2-[2-(2,5-dimethylphenyl)-1-hydroxyethyl]-imidazole] | 45 | effectively | effectively |  |
| Cc1cccc(C)c1CCC(O)c1nccn1Cc1ccccc1 (centres unmarked) [1-Benzyl-2-[3-(2,6-dimethylphenyl)-1-hydroxypropyl]-imidazole] | 65 | effectively | effectively |  |
| Cc1cccc(C)c1C=Cc1ncc[nH]1 [2-[2-(2,6-dimethylphenyl)-ethenyl]-imidazole] | 40 |  |  | lowers the blood pressure by ([1]; dose 3 mg/kg i.v. in rats): 17 per cent; pulse frequency ([1]; dose not stated): no effect |
| Cc1cccc(C)c1CCC1=NCCN1 [2-[2-(2,6-dimethylphenyl)-ethyl]-imidazoline] | 25 |  |  | lowers the blood pressure by ([1]; dose 1-3 mg/kg in rats): 20% |
| Cc1cccc(CCC2=NCCN2)c1C [2-[2-(2,3-dimethylphenyl)-ethyl]-imidazoline] | 30 |  |  | maximal decrease of the blood pressure [1, 5]: 26% |
| Cc1ccc(CCc2ncc[nH]2)cc1C [2-[2-(3,4-dimethylphenyl)-ethyl]-imidazole] | 40 |  |  | lowered the blood pressure by ([1]; dose 10 mg/kg): 20% |
| Cc1cccc(C)c1CC(O)c1ncc[nH]1 (stereo not drawn) [2-[2-(2,6-dimethylphenyl)-l-hydroxyethyl]-imidazole] | 60 |  |  | effect on blood pressure ([1]; dose 10 mg/kg): lowers the blood pressure for a longer period; effect on blood pressure ([1]; dose 1 and 3 mg/kg i.v.): lowering of the blood pressure of short duration; pulse frequency ([1]; dose not stated): very slightly influenced |
| Cc1c[nH]c(CCc2cccc(C)c2C)n1 [2-[2-(2,3-dimethylphenyl)-ethyl]-4-methyl-imidazole] | 35 | effectively | effectively | maximal decrease of the blood pressure [1, 5]: 32% |
| Cc1ccccc1Cc1nc(C)c(C)[nH]1 [2-(2-methylbenzyl)-4,5-dimethyl-imidazole] | 30 | effectively | effectively |  |
| Cc1c[nH]c(CCc2c(C)cccc2C)n1 [2-[2-(2,6-dimethylphenyl)-ethyl]-4-methyl-imidazole] | 25 |  |  | lowered the blood pressure by ([1]; dosage 300 µg/kg i.v.): 45% |
